Measured values taken from PubChem BioAssay AID1259407 (Chemical Carcinogenesis Research Information System (CCRIS), 2018).
Active and inactive are the calls of the source. The rule behind the calls is not given here.

System: CCRIS mutagenicity, Ames/micronucleus/aberration tests
Assay: CCRIS mutagenicity studies
[1] = Test System: UDS RAT HEPATOCYTES, Strain/Indicator: THY INCORP, Metabolic Activation: NONE, Method: AUTORADIOGRAPHY
[2] = Test System: AMES SALMONELLA TYPHIMURIUM, Strain/Indicator: TA100, Metabolic Activation: RAT, LIVER, S-9, AROCLOR 1254, Method: PREINCUBATION
[3] = Test System: AMES SALMONELLA TYPHIMURIUM, Strain/Indicator: TA100, Metabolic Activation: NONE, Method: STANDARD PLATE
[4] = Test System: AMES SALMONELLA TYPHIMURIUM, Strain/Indicator: TA98, Metabolic Activation: NONE, Method: STANDARD PLATE
[5] = Test System: AMES SALMONELLA TYPHIMURIUM, Strain/Indicator: TA98, Metabolic Activation: RAT, LIVER, S-9, AROCLOR 1254, Method: STANDARD PLATE
[6] = Test System: AMES SALMONELLA TYPHIMURIUM, Strain/Indicator: TA100, Metabolic Activation: RAT, LIVER, S-9, AROCLOR 1254, Method: STANDARD PLATE
[7] = Test System: AMES SALMONELLA TYPHIMURIUM, Strain/Indicator: TA1535, Metabolic Activation: NONE, Method: STANDARD PLATE
[8] = Test System: AMES SALMONELLA TYPHIMURIUM, Strain/Indicator: TA1537, Metabolic Activation: NONE, Method: STANDARD PLATE

Which results are given for `CC(C)(Oc1ccc(C2CC2(Cl)Cl)cc1)C(=O)O` (configuration not stated)?
mutagenic call (Test System: AMES SALMONELLA TYPHIMURIUM, Strain/Indicator: TA98, Metabolic Activation: NONE): inactive; negative; mutagenic call (Test System: AMES SALMONELLA TYPHIMURIUM, Strain/Indicator: TA98, Metabolic Activation: RAT, LIVER, S-9, AROCLOR 1254): inactive; negative; mutagenic call (Test System: AMES SALMONELLA TYPHIMURIUM, Strain/Indicator: TA102, Metabolic Activation: NONE): inactive; negative; mutagenic call (Test System: AMES SALMONELLA TYPHIMURIUM, Strain/Indicator: TA102, Metabolic Activation: RAT, LIVER, S-9, AROCLOR 1254): inactive; negative; mutagenic call (Test System: AMES SALMONELLA TYPHIMURIUM, Strain/Indicator: TA104, Metabolic Activation: NONE): inactive; negative; mutagenic call (Test System: AMES SALMONELLA TYPHIMURIUM, Strain/Indicator: TA104, Metabolic Activation: RAT, LIVER, S-9, AROCLOR 1254): inactive; negative; mutagenic call (Test System: UDS RAT HEPATOCYTES, Strain/Indicator: BROMODEOXYURIDINE INCORP, Metabolic Activation: NONE, Method: FLOW CYTOMETRIC ANALYSIS): inactive; negative; mutagenic call [1]: inactive; negative; mutagenic call (Test System: UDS RAT HEPATOCYTES, Strain/Indicator: THY INCORP, Metabolic Activation: NONE, Method: LIQUID SCINTILLATION COUNTING): inactive; negative

How did the mutagenic call (Test System: E. COLI, Strain/Indicator: WP2 UVRA, Metabolic Activation: NONE, Method: FLUCTUATION TEST) turn out when `CCCCOC(N)=O` was run?
Its mutagenic call is “inactive; negative”.

Which mutagenic call (Test System: AMES SALMONELLA TYPHIMURIUM, Strain/Indicator: TA100, Metabolic Activation: NONE, Method: PREINCUBATION) does the source give for `O=C/C=C/c1ccccc1[N+](=O)[O-]` here?
Its mutagenic call is “active; positive”.

And the mutagenic call [2]?
The mutagenic call was “active; positive”.

What does the source list for `Fc1ccc2c3c(ccc2c1)-c1cccc2cccc-3c12`?
mutagenic call (Test System: AMES SALMONELLA TYPHIMURIUM, Strain/Indicator: TA97A, Metabolic Activation: RAT, LIVER, S-9, AROCLOR 1254, Method: PREINCUBATION): active; positive; mutagenic call (Test System: AMES SALMONELLA TYPHIMURIUM, Strain/Indicator: TA98, Metabolic Activation: RAT, LIVER, S-9, AROCLOR 1254, Method: PREINCUBATION): active; positive; mutagenic call [2]: active; positive

How did the mutagenic call [3] turn out when `O=C1CC(=C(Cl)Cl)C(=O)N1` was run?
The mutagenic call was “active; positive”.

Which mutagenic call [1] does the source give for `CCC1C(=O)O[C@@H]2CCN(C)C/C=C(/COC(=O)[C@](C)(O)[C@H](C)[C@@H]1O)C2=O` (some centres not stated) here?
The mutagenic call was “active; positive”.

`CCOC(=O)C(=NNc1ccc(-c2ccc(NN=C(C(=O)OCC)C(=O)OCC)c(Cl)c2)cc1Cl)C(=O)OCC` was tested. Which mutagenic call (Test System: AMES SALMONELLA TYPHIMURIUM, Strain/Indicator: TA98, Metabolic Activation: HAMSTER, LIVER, S-9, Method: PREINCUBATION (PRIVAL METHOD)) did it give?
The mutagenic call was “inactive; negative”.

And the mutagenic call (Test System: AMES SALMONELLA TYPHIMURIUM, Strain/Indicator: TA98, Metabolic Activation: NONE, Method: PREINCUBATION (PRIVAL METHOD))?
The mutagenic call was “inactive; negative”.

What does the source list for `CC1(C)[C@H](C=C(Cl)Cl)[C@H]1C(=O)OCc1cccc(Oc2ccccc2)c1`?
mutagenic call (Test System: AMES SALMONELLA TYPHIMURIUM, Strain/Indicator: TA97, Metabolic Activation: NONE, Method: STANDARD PLATE): inactive; negative; mutagenic call (Test System: AMES SALMONELLA TYPHIMURIUM, Strain/Indicator: TA97, Metabolic Activation: RAT, LIVER, S-9, PHENOBARBITONE, Method: STANDARD PLATE): inactive; negative; mutagenic call [4]: inactive; negative; mutagenic call (Test System: AMES SALMONELLA TYPHIMURIUM, Strain/Indicator: TA98, Metabolic Activation: RAT, LIVER, S-9, PHENOBARBITONE, Method: STANDARD PLATE): inactive; negative; mutagenic call [3]: inactive; negative; mutagenic call (Test System: AMES SALMONELLA TYPHIMURIUM, Strain/Indicator: TA100, Metabolic Activation: RAT, LIVER, S-9, PHENOBARBITONE, Method: STANDARD PLATE): inactive; negative; mutagenic call (Test System: AMES SALMONELLA TYPHIMURIUM, Strain/Indicator: TA104, Metabolic Activation: NONE, Method: STANDARD PLATE): inactive; negative; mutagenic call (Test System: AMES SALMONELLA TYPHIMURIUM, Strain/Indicator: TA104, Metabolic Activation: RAT, LIVER, S-9, PHENOBARBITONE, Method: STANDARD PLATE): inactive; negative

For `CNCCCN1c2ccccc2CCc2ccccc21`, which mutagenic call [4] is on record?
Its mutagenic call is “inactive; negative”.

And the mutagenic call [5]?
The mutagenic call was “inactive; negative”.

What about the mutagenic call [3] of the same compound?
The mutagenic call was “inactive; negative”.

What about the mutagenic call [6] of the same compound?
Its mutagenic call is “inactive; negative”.

What about the mutagenic call [7] of the same compound?
The mutagenic call was “inactive; negative”.

And the mutagenic call (Test System: AMES SALMONELLA TYPHIMURIUM, Strain/Indicator: TA1535, Metabolic Activation: RAT, LIVER, S-9, AROCLOR 1254, Method: STANDARD PLATE)?
The mutagenic call was “inactive; negative”.

What about the mutagenic call [8] of the same compound?
The mutagenic call was “inactive; negative”.

And the mutagenic call (Test System: AMES SALMONELLA TYPHIMURIUM, Strain/Indicator: TA1537, Metabolic Activation: RAT, LIVER, S-9, AROCLOR 1254, Method: STANDARD PLATE)?
Its mutagenic call is “inactive; negative”.

Which results are given for `Cc1cccc(Nc2ccncc2S(=O)(=O)NC(=O)NC(C)C)c1`?
mutagenic call [4]: inactive; negative; mutagenic call (Test System: AMES SALMONELLA TYPHIMURIUM, Strain/Indicator: TA98, Metabolic Activation: RAT, LIVER, S-9, Method: STANDARD PLATE): inactive; negative; mutagenic call [3]: inactive; negative; mutagenic call (Test System: AMES SALMONELLA TYPHIMURIUM, Strain/Indicator: TA100, Metabolic Activation: RAT, LIVER, S-9, Method: STANDARD PLATE): inactive; negative; mutagenic call [7]: inactive; negative; mutagenic call (Test System: AMES SALMONELLA TYPHIMURIUM, Strain/Indicator: TA1535, Metabolic Activation: RAT, LIVER, S-9, Method: STANDARD PLATE): inactive; negative; mutagenic call [8]: inactive; negative; mutagenic call (Test System: AMES SALMONELLA TYPHIMURIUM, Strain/Indicator: TA1537, Metabolic Activation: RAT, LIVER, S-9, Method: STANDARD PLATE): inactive; negative; mutagenic call (Test System: E. COLI, Strain/Indicator: WP2 UVRA, Metabolic Activation: NONE, Method: STANDARD PLATE): inactive; negative; mutagenic call (Test System: E. COLI, Strain/Indicator: WP2 UVRA, Metabolic Activation: RAT, LIVER, S-9, Method: STANDARD PLATE): inactive; negative

`Cc1ccc2c(C)c3ccccc3c(C)c2c1` was tested. Which mutagenic call [4] did it give?
Its mutagenic call is “active; positive”.

What about the mutagenic call [5] of the same compound?
Its mutagenic call is “active; positive”.

And the mutagenic call [3]?
Its mutagenic call is “inactive; negative”.

What about the mutagenic call [6] of the same compound?
The mutagenic call was “active; positive”.

`O=C(OCC1CCC2OC2C1)C1CCC2OC2C1` (configuration not stated) was tested. Which mutagenic call (Test System: AMES SALMONELLA TYPHIMURIUM, Strain/Indicator: TA97A, Metabolic Activation: NONE, Method: STANDARD PLATE) did it give?
The mutagenic call was “inactive; negative”.

And the mutagenic call (Test System: AMES SALMONELLA TYPHIMURIUM, Strain/Indicator: TA97A, Metabolic Activation: RAT LIVER S-9, PHENOBARBITAL AND BETA-NAPHTHOFLAVONE (10%), Method: STANDARD PLATE)?
Its mutagenic call is “inactive; negative”.

What about the mutagenic call [4] of the same compound?
The mutagenic call was “inactive; negative”.

What about the mutagenic call (Test System: AMES SALMONELLA TYPHIMURIUM, Strain/Indicator: TA98, Metabolic Activation: RAT LIVER S-9, PHENOBARBITAL AND BETA-NAPHTHOFLAVONE (10%), Method: STANDARD PLATE) of the same compound?
The mutagenic call was “inactive; negative”.

And the mutagenic call [3]?
Its mutagenic call is “inactive; negative”.

And the mutagenic call (Test System: AMES SALMONELLA TYPHIMURIUM, Strain/Indicator: TA100, Metabolic Activation: RAT LIVER S-9, PHENOBARBITAL AND BETA-NAPHTHOFLAVONE (10%), Method: STANDARD PLATE)?
Its mutagenic call is “active; positive”.

What about the mutagenic call (Test System: AMES SALMONELLA TYPHIMURIUM, Strain/Indicator: TA102, Metabolic Activation: NONE, Method: STANDARD PLATE) of the same compound?
The mutagenic call was “inactive; negative”.

And the mutagenic call (Test System: AMES SALMONELLA TYPHIMURIUM, Strain/Indicator: TA102, Metabolic Activation: RAT LIVER S-9, PHENOBARBITAL AND BETA-NAPHTHOFLAVONE (10%), Method: STANDARD PLATE)?
Its mutagenic call is “inactive; negative”.
